In PubChem BioAssay (NCI) one finds TGI and GI50 data, which are given here for twelve compounds.

Test systems include A498 renal; CAKI-1 renal; EKVX NSCLC; K-562 leukemia; MOLT-4 leukemia; NCI-H522 lung; OVCAR-4 ovarian; OVCAR-5 ovarian; TK-10 renal; SK-OV-3 ovarian.
Holding throughout (test): NCI-60 cell line screen, 48 h

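Values below derive from 48-hour exposures of cells grown in 96-well plates, with endpoints linearly interpolated between the two concentrations bracketing the appropriate inhibition level. GI50 is the concentration that inhibits growth by half. Definition used: TGI = concentration required for complete inhibition of growth.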

For `O=C1c2cc(Cc3ccccc3)c(=O)c(Cc3ccccc3)cc2C(=O)c2cc(Cc3ccccc3)c(=O)c(Cc3ccccc3)cc21`, the TGI in the test with A498 renal, with CAKI-1 renal, in the test with EKVX NSCLC, with K-562 leukemia, in the test with MOLT-4 leukemia and in the test with NCI-H522 lung was > 100 µM in each case. The TGI in the test on OVCAR-4 ovarian, with OVCAR-5 ovarian and in the test on TK-10 renal was > 100 µM each time.

Regarding `COc1cc(CNc2nc3c(N)cc(C(F)(F)F)cc3nc2-c2ccccc2)cc(OC)c1OC`, the TGI is > 100 µM in the test on A498 renal; 25.6 µM in the test with EKVX NSCLC; > 100 µM with K-562 leukemia; > 100 µM in the test on MOLT-4 leukemia; 78.5 µM in the test with NCI-H522 lung; > 100 µM with OVCAR-4 ovarian. Besides, the TGI with OVCAR-5 ovarian, in the test with SK-OV-3 ovarian and in the test with TK-10 renal was > 100 µM throughout. The GI50 with MOLT-4 leukemia, in the test with SK-OV-3 ovarian and in the test on TK-10 renal was > 100 µM each time.

As for `CCO/C=C1\N=C(c2ccc(Cl)c(Cl)c2)OC1=O`, the TGI in the test with A498 renal, with CAKI-1 renal, in the test with EKVX NSCLC, with K-562 leukemia, with MOLT-4 leukemia and in the test with NCI-H522 lung was > 100 µM throughout. Moreover, the TGI with OVCAR-4 ovarian, in the test with OVCAR-5 ovarian and with TK-10 renal was > 100 µM throughout.

In the case of `CCCCNNC(=O)c1ccc(Br)cc1`, the GI50 with A498 renal was 0.364 µM; in the test with CAKI-1 renal, 2.88 µM; in the test with K-562 leukemia, 2.02 µM; with MOLT-4 leukemia it was 2.51 µM; with NCI-H522 lung, 1.27 µM; in the test on OVCAR-4 ovarian, 4.79 µM. Also, the GI50 with OVCAR-5 ovarian was 1.01 µM; in the test on SK-OV-3 ovarian it was 8.54 µM; in the test with TK-10 renal it was 1.31 µM. The TGI in the test with A498 renal was 3.41 µM; in the test on CAKI-1 renal, > 27 µM; in the test on K-562 leukemia it was > 50 µM; with MOLT-4 leukemia, > 50 µM; with NCI-H522 lung, > 22 µM; in the test with OVCAR-4 ovarian, > 50 µM. In addition, the TGI in the test on OVCAR-5 ovarian was > 15.3 µM; in the test with SK-OV-3 ovarian, > 50 µM; in the test on TK-10 renal, 12.2 µM.

Regarding `CCC(=O)N1C/C(=C/c2ccc(Cl)cc2)C(=O)/C(=C/c2ccc(Cl)cc2)C1`, the GI50 in the test with A498 renal is 1.5 µM; with CAKI-1 renal, 2.25 µM; in the test on K-562 leukemia, 0.317 µM; in the test on MOLT-4 leukemia, 0.974 µM; with NCI-H522 lung it was 0.973 µM; with OVCAR-4 ovarian, 0.836 µM. Moreover, the GI50 in the test on OVCAR-5 ovarian was 1.48 µM; in the test with SK-OV-3 ovarian it was 1.83 µM; with TK-10 renal, 1.76 µM. Moreover, the TGI amounted to 3.04 µM with A498 renal; 7.85 µM in the test on CAKI-1 renal; 5.87 µM in the test with MOLT-4 leukemia; 2.4 µM in the test with NCI-H522 lung; 2.86 µM with OVCAR-4 ovarian; 3 µM in the test with OVCAR-5 ovarian. Moreover, the figures for the TGI with SK-OV-3 ovarian and in the test with TK-10 renal were 3.76 µM and 3.52 µM, respectively.

`Cc1cc(N(CCC#N)S(=O)(=O)c2ccccc2)ccc1/C=C1\N=C(c2ccc(Cl)cc2)OC1=O`: the TGI in the test on A498 renal, in the test on CAKI-1 renal, in the test with EKVX NSCLC, in the test on K-562 leukemia, in the test with MOLT-4 leukemia and in the test with OVCAR-4 ovarian was > 100 µM throughout. Moreover, in the test with OVCAR-5 ovarian, the TGI was > 100 µM.

On to `COc1ccc([C@H](CC(=O)O)N2CCN(CCCc3ccc4c(n3)NCCC4)C2=O)cn1`, for which the GI50 in the test on A498 renal was 0.0116 µM; in the test with CAKI-1 renal, 2.71 µM; in the test on K-562 leukemia it was > 80.8 µM; in the test with MOLT-4 leukemia it was > 100 µM; in the test with NCI-H522 lung, 0.114 µM; in the test with OVCAR-4 ovarian it was > 100 µM. Further, the GI50 was 0.403 µM in the test with OVCAR-5 ovarian, > 100 µM in the test with SK-OV-3 ovarian and 0.0167 µM in the test with TK-10 renal. The TGI in the test with A498 renal was 0.0633 µM; with CAKI-1 renal it was > 100 µM; in the test with K-562 leukemia it was > 100 µM; in the test on MOLT-4 leukemia it was > 100 µM; in the test with NCI-H522 lung, 0.267 µM; in the test on OVCAR-4 ovarian it was > 100 µM. Besides, the figures for the TGI in the test with OVCAR-5 ovarian, with SK-OV-3 ovarian and in the test on TK-10 renal were > 100 µM, > 100 µM and 0.0795 µM, respectively.

As to `COC(=O)CCC(NC(=S)N/N=C(\C)c1ccc[nH]1)C(=O)OC` (stereo not given), the TGI in the test with A498 renal, in the test with EKVX NSCLC, in the test with K-562 leukemia, in the test on MOLT-4 leukemia, in the test with NCI-H522 lung and with OVCAR-4 ovarian was > 100 µM in each case. Moreover, the TGI in the test with OVCAR-5 ovarian, in the test with SK-OV-3 ovarian and in the test on TK-10 renal was > 100 µM each time.

Consider `Cc1cc2c(c(C(N)=O)c1C)-c1cccc(F)c1C2=O`, for which the TGI in the test on A498 renal, in the test on EKVX NSCLC, with K-562 leukemia, in the test with MOLT-4 leukemia, with NCI-H522 lung and in the test with OVCAR-4 ovarian was > 100 µM each time. Further, the TGI with OVCAR-5 ovarian, with SK-OV-3 ovarian and in the test with TK-10 renal was > 100 µM in each case.

Consider `COc1ccccc1N=Nc1c(-c2ccccc2)nn(C(=O)CC(=O)Nc2cccc(C)c2)c1-c1ccccc1`, for which the TGI is > 100 µM in the test on A498 renal; > 100 µM in the test with CAKI-1 renal; > 100 µM with EKVX NSCLC; 52.7 µM with K-562 leukemia; 50.6 µM in the test on MOLT-4 leukemia; > 100 µM in the test with NCI-H522 lung. Moreover, the TGI in the test on OVCAR-4 ovarian, with OVCAR-5 ovarian and with TK-10 renal was > 100 µM throughout.

In the case of `O=c1c2c([nH]c3nccn13)CCC2`, the TGI in the test on A498 renal is 8.91 µM; in the test on CAKI-1 renal, > 10 µM; with EKVX NSCLC, > 10 µM; in the test on K-562 leukemia it was > 10 µM; in the test on MOLT-4 leukemia it was > 10 µM; in the test with OVCAR-4 ovarian it was > 10 µM. Besides, the TGI in the test with OVCAR-5 ovarian, in the test on SK-OV-3 ovarian and in the test with TK-10 renal was > 10 µM throughout.

As for `N#CC(CCN1CCC(Nc2ccccc2)(c2nnnn2C2CCCCC2)CC1)(c1ccccc1)c1ccccc1`, the TGI in the test on A498 renal, in the test with EKVX NSCLC, with K-562 leukemia, with MOLT-4 leukemia, in the test with NCI-H522 lung and in the test on OVCAR-4 ovarian was > 100 µM in each case. Further, the TGI in the test with OVCAR-5 ovarian, in the test with SK-OV-3 ovarian and in the test on TK-10 renal was > 100 µM throughout.
